Patent US20230152329A1, “NOVEL SPLIT-LUCIFERASE ENZYMES AND APPLICATIONS THEREOF” (ARIZONA BOARD OF REGENTS ON BEHALF OF THE UNIVERSITY OF …, priority 2020, published 2023)
Where a chain is given by its changes, count along the chain named. Names may count otherwise. Read-outs that look alike come from different tables or passages of the source.

B1: Y33A: first-generation split-Fluc228 with N-FLuc228 Y33A single mutant (SEQ ID NO: 8) (protein)
chain: MEDAKNIKKGPAPFYPLEDGTAGEQLHKAMKRAALVPGTIAFTDAHIEVNITYAEYFEMSVRLAEAMKRYGLNTNHRIVVCSENSLQFFMPVLGALFIGVAVAPANDIYNERELLNSMNISQPTVVFVSKKGLQKILNVQKKLPIIQKIIIMDSKTDYQGFQSMYTFVTSHLPPGFNEYDFVPESFDRDKTIALIMNSSGSTGLPKGVALPHRTACVRFSHARDPIFG
B2: H46A: first-generation split-Fluc228 with N-FLuc228 H46A single mutant (SEQ ID NO: 7) (protein)
chain: B1 chain with A33Y, H46A

Legend:
[1] = target: T1, protein-protein interaction of Bcl-xL and BAK (Homo sapiens, UniProt Q07817); test: In cellulo split-luciferase assay, inhibition of Bcl-xL/BAK interaction in HEK293T cells; format: cell-based; settings: 14 hours; for inhibition at 10 µM: HEK-293T, read-out: Percent Inhibition
T1 construct: appending the soluble domain of Bcl-xL to the C-terminal fragment of N-Fluc228 Y33A/H46A; expressed in transfected cells; host or cells: HEK293T, transient transfection (pcDNA 3.1 constructs)
Protocol: N-terminal halves of firefly luciferase (N-Fluc) constructs were generated by fusing FK506-binding protein (FKBP) or Bcl-xL 209 (CΔ24) to the C-terminal of N-Fluc with a 27-residue glycine-serine linker in pcDNA 3.1 via restriction cloning. […] For in vitro assays, mRNA was generated using RiboMaX large scale RNA production system (T7) for 4 h at 30° C. and subsequently purified using G50-microcolumns.
HEK293T cells were maintained in DMEM supplemented with 10% (v/v) FBS, 2.5 μg/mL Amphotericin B, 100 U/mL penicillin, and 100 μg/mL streptomycin, and in a 37° C. water-saturated incubator with 5% CO2. For in cellulo experiments, 3×10^6 cells were seeded in 60 mm dishes for 24 h and then transiently transfected with equal amounts of DNA of each luciferase fragment using PolyJet In Vitro DNA Transfection Reagent. Twelve hours following transfection, 2.5×10^5 cells were transferred to 24-well plates and incubated for an additional 24 h. […] All reported data was done at least in duplicate and repeated on different days. Data from luciferase assays were all normalized by lysate load and with background correction of equivalently treated mock transfected HEK293T cells.
Split-Fluc228 Y33A/H46A constructs were created by appending the soluble domain of Bcl-xL to the C-terminal fragment of N-Fluc228 Y33A/H46A with a 27-residue glycine-serine linker, giving N-Fluc228 Y33A/H46A-GS27-Bcl-xL. The BH3 domain of BAK (20 residues) was appended to the N-terminal fragment of C-Fluc229 through a 30-residue glycine-serine linker, providing BAK-GS30-C-Fluc229.

[2] = target: T2, FKBP-Rapamycin-FRB (Homo sapiens, UniProt P42345+P62942); test: Cell-free (rabbit reticulocyte lysate) rapamycin-inducible split-luciferase assay; format: biochemical; settings: cell-free RRL; for rapamycin dependent luminescence signal (overall signal): 100 nM rapamycin; for unassisted/background complementation: without added rapamycin (DMSO)
T2 construct: N-terminal fragment of firefly luciferase (N-Fluc); split at 159, 228, 374, 397 or 405; C-terminal fragment of firefly luciferase (C-Fluc); made in house; host or cells: cell-free translation in rabbit reticulocyte lysate (RRL) from in vitro transcribed mRNA
From the text: N-terminal halves of firefly luciferase (N-Fluc) constructs were generated by fusing FK506-binding protein (FKBP) or Bcl-xL 209 (CΔ24) to the C-terminal of N-Fluc with a 27-residue glycine-serine linker in pcDNA 3.1 via restriction cloning. C-terminal halves of firefly luciferase (C-Fluc) were created by fusing either FKBP rapamycin-binding (FRB) domain or the BH3-domain of BAK to the N-terminal of C-Fluc with a 30-residue glycine-serine linker in pcDNA 3.1 via restriction cloning. For in vitro assays, mRNA was generated using RiboMaX large scale RNA production system (T7) for 4 h at 30° C. and subsequently purified using G50-microcolumns.
Following translation, 20 μL of lysate was added to 80 μL of L-Glo luciferase assay reagent, incubated at room temperature for 1 min and luminescence was subsequently read using a luminometer with 10 s integration time. All reported data are at least in duplicate and assays have been repeated on different days. Data from the reported luciferase assays were all normalized with background correction of equivalent treatment of RRL without added mRNA.
The N-terminal fragment of each split-luciferase was fused to FKBP at the C-terminal end and the C-terminal fragment of each split-luciferase was fused to FRB at the N-terminal end. Referring to FIG. 2A, the linkers between the enzyme fragments and the FKBP or FRB included 27 to 30 residue glycine-serine linkers. With the five split-Fluc constructs in hand, complementation was tested employing a cell-free protein expression approach using rabbit reticulocyte lysate (RRL), which allows for rapid protein expression and analysis. […] Following incubation, L-Glo reagent containing the substrate, luciferin, was added to each of the split-Fluc pairs and luminescence was subsequently measured.

[3] = 10 μM ABT-737, N-Fluc228 WT-Bcl-xL CΔ24 with BAK-CFluc229, HEK293T
[4] = 10 μM ABT-737, N-Fluc228 Y33A/H46A-Bcl-xL CΔ24 with BAK-CFluc229, HEK293T

T1 sequence (Q07817 1-209 limits assumed): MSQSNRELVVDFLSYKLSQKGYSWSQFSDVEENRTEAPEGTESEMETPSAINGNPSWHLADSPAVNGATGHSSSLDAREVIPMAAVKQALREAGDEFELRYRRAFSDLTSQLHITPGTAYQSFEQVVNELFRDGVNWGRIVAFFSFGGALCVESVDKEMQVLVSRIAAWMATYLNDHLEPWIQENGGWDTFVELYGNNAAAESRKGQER
T2 sequence (P62942 whole entry, the tested form may be a part): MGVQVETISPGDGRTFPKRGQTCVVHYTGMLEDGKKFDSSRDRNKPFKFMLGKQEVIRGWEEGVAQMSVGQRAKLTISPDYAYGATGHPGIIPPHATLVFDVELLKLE
T2 sequence (P42345 2012-2144 limits assumed): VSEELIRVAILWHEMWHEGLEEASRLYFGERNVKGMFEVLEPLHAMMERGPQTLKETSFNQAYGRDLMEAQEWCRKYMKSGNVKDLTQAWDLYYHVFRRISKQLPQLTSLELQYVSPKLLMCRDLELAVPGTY

Row | Molecule | Average RLU [1, 3] | Average RLU [1, 4] | Percent Inhibition [1, 4] [%] | inhibition at 10 µM [1, 3] [%] | inhibition at 10 µM [1, 4] [%] | rapamycin dependent luminescence signal (overall signal) [2] | unassisted/background complementation [2]
1 | CN(C)CC[C@H](CSc1ccccc1)Nc1ccc(S(=O)(=O)NC(=O)c2ccc(N3CCN(Cc4ccccc4-c4ccc(Cl)cc4)CC3)cc2)cc1[N+](=O)[O-] [ABT-737] | 438,145 RLU | 2,258 RLU | 99.8 | 96.1 | > 99 |  | 
2 | B1 |  |  |  |  |  | maintaining strong rapamycin dependent signals | significantly reduced unassisted complementation
3 | B2 |  |  |  |  |  | maintaining strong rapamycin dependent signals | significantly reduced unassisted complementation
